This note sets out measurements from patent US8569509B2, “Thiazole-4-carboxylic acid esters and thioesters as plant protection agents” (priority 2008, dated 2013).

Read-outs that look alike come from different tables or passages of the source.

The nature of this data set: log P determination (HPLC, calibration with unbranched alkan-2-ones). As to conditions: for log p: linear gradient 10% to 95% acetonitrile. The data set is classed as physicochemical. The protocol:
The calibration is carried out using unbranched alkan-2-ones (having 3 to 16 carbon atoms) with known log P values (determination of the log P values by the retention times using linear interpolation between two successive alkanones). The lambda-maX values were determined in the maxima of the chromatographic signals using the UV spectra from 200 nm to 400 nm.

The mark [1] stands for this setting: * LC-MS determination in the acidic range at pH 2.7, mobile phases 0.1% aqueous formic acid and acetonitrile (0.1% formic acid), reversed-phase C 18 HPLC.
[2] abbreviates: * LC-MS determination in the acidic range at pH 2.7, 0.1% aqueous formic acid and acetonitrile.
[3] abbreviates: pH 2.7, read-out: log P (pH 2.7).
[4] abbreviates: pH 7.8, read-out: log P (pH 7.8).

`CC=CC(CC)OC(=O)c1csc(C2CCN(C(=O)C(C)(C)n3nc(C)cc3C)CC2)n1` (mixture of isomers) [compound 799]: the log p under setting [1] is recorded as 3.78*.

Turning to `Cc1cc(C)n(C(C)(C)C(=O)N2CCC(c3nc(C(=O)OC(C)c4ccc(F)cc4)cs3)CC2)n1` (racemic) [compound 403], the log p under setting [2] was 3.47*.

As for `Cc1c(Cl)c(C(F)(F)F)nn1C(C)C(=O)N1CCC(c2nc(C(=O)OC3CCCCC3)cs2)CC1` (racemic) [compound 769], the log p under setting [2] is given as 4.58*. Regarding `Cc1c(Cl)c(C(F)(F)F)nn1C(C)C(=O)N1CCC(c2nc(C(=O)Oc3cccc4ccccc34)cs2)CC1` (racemic) [compound 770], under setting [1], the log p was 4.50*. On to `O=C(O)c1csc(C2CCN(C(=O)Cn3nc(C(F)F)cc3C(F)F)CC2)n1` [III-1, 2-(1-{[3,5-Bis(difluoromethyl)-1H-pyrazol-1-yl]acetyl}piperidin-4-yl)-1,3-thiazole-4-carboxylic acid], for which the chromatographic logP under setting [3] was found to be 1.71. In the case of `O=C(O)c1csc(C2CCN(C(=O)Cn3ccc(C(F)(F)F)n3)CC2)n1` [III-2, 2-(1-{[3-(Trifluoromethyl)-1H-pyrazol-1-yl]acetyl}piperidin-4-yl)-1,3-thiazole-4-carboxylic acid], the chromatographic logP under setting [3] came to 1.65. The same measure, in the same setting: the value for `Cc1cc(C(F)(F)F)nn1CC(=O)N1CCCC(c2nc(C(=O)O)cs2)C1` (centres unmarked) [III-3, 2-(1-{[5-Methyl-3-(trifluoromethyl)-1H-pyrazol-1-yl]acetyl}piperidin-3-yl)-1,3-thiazole-4-carboxylic acid] was 1.9; that for `Cc1cc(C(F)(F)F)nn1CC(=O)N1CCC(c2nc(C(=O)O)cs2)CC1` [III-4, 2-(1-{[5-Methyl-3-(trifluoromethyl)-1H-pyrazol-1-yl]acetyl}piperidin-4-yl)-1,3-thiazole-4-carboxylic acid] was 1.82. As for `Cc1c(Cl)c(C(F)(F)F)nn1CC(=O)N1CCC(c2nc(C(=O)O)cs2)CC1` [III-5, 2-(1-{[4-Chloro-5-methyl-3-(trifluoromethyl)-1H-pyrazol-1-yl]acetyl}piperidin-4-yl)-1,3-thiazole-4-carboxylic acid], the chromatographic logP under setting [3] worked out at 2.26. Regarding `CCOC(=O)c1csc(C2CCN(C(=O)Cn3nc(C(F)F)cc3C(F)F)CC2)n1` [IV-1, Ethyl 2-(1-{[3,5-bis(difluoromethyl)-1H-pyrazol-1-yl]acetyl}piperidin-4-yl)-1,3-thiazole-4-carboxylate], the chromatographic logP under setting [3] is 2.52. Same read-out and setting: under `CCOC(=O)c1csc(C2CCN(C(=O)Cn3ccc(C(F)(F)F)n3)CC2)n1` [IV-2, Ethyl 2-(1-{[3-(trifluoromethyl)-1H-pyrazol-1-yl]acetyl}piperidin-4-yl)-1,3-thiazole-4-carboxylate] stands 2.41. Same read-out and setting: under `CCOC(=O)c1csc(C2CCCN(C(=O)Cn3nc(C(F)(F)F)cc3C)C2)n1` (centres unmarked) [IV-3, Ethyl 2-(1-{[5-methyl-3-(trifluoromethyl)-1H-pyrazol-1-yl]acetyl}piperidin-3-yl)-1,3-thiazole-4-carboxylate] stands 2.78. Turning to `CCOC(=O)c1csc(C2CCN(C(=O)C(C)(C)n3nc(C)cc3C)CC2)n1` [IV-4, Ethyl 2-{1-[2-(3,5-dimethyl-1H-pyrazol-1-yl)-2-methylpropanoyl]piperidin-4-yl}-1,3-thiazole-4-carboxylate], under setting [4], the chromatographic logP was 2.34. For the compound `CCOC(=O)c1csc(C2CCN(C(=O)Cn3nc(C(F)(F)F)cc3C)CC2)n1` [IV-5, Ethyl 2-(1-{[5-methyl-3-(trifluoromethyl)-1H-pyrazol-1-yl]acetyl}piperidin-4-yl)-1,3-thiazole-4-carboxylate], the chromatographic logP under setting [3] turned out to be 2.62.

Take `CCOC(=O)c1csc(C2CCN(C(=O)Cn3nc(C(F)(F)F)c(Cl)c3C)CC2)n1` [IV-6, Ethyl 2-(1-{[4-chloro-5-methyl-3-(trifluoromethyl)-1H-pyrazol-1-yl]acetyl}piperidin-4-yl)-1,3-thiazole-4-carboxylate]: under setting [3], the chromatographic logP turned out to be 3.17. On to `CC(C)(C)OC(=O)N1CCC(c2nc(C(=O)Oc3cccc4ccccc34)cs2)CC1` [IX-2, tert-Butyl 4-{4-[(1-naphthyloxy)carbonyl]-1,3-thiazol-2-yl}piperidine-1-carboxylate], for which the chromatographic logP under setting [3] is 4.5.

For `CC(C)(C)c1cc(C(F)(F)F)n(CC(=O)O)n1` [V-1, [3-tert-Butyl-5-(trifluoromethyl)-1H-pyrazol-1-yl]acetic acid], the chromatographic logP under setting [3] was found to be 2.45.

For the compound `CC(C)(C)c1cc(C(F)(F)F)nn1CC(=O)O` [V-2, [5-tert-Butyl-3-(trifluoromethyl)-1H-pyrazol-1-yl]acetic acid], the chromatographic logP under setting [3] was 2.45. Still for that read-out and setting: under `CC(C)(C)c1cc(C(F)(F)C(F)(F)F)n(CC(=O)O)n1` [V-3, [3-tert-Butyl-5-(pentafluoroethyl)-1H-pyrazol-1-yl]acetic acid] stands 2.92; under `CC(C)(C)c1cc(C(F)(F)C(F)(F)F)nn1CC(=O)O` [V-4, [5-tert-Butyl-3-(pentafluoroethyl)-1H-pyrazol-1-yl]acetic acid], 2.75; under `CC(C)c1cc(C(F)(F)F)n(CC(=O)O)n1` [V-5, [3-Isopropyl-5-(trifluoromethyl)-1H-pyrazol-1-yl]acetic acid], 2.05. For the compound `Cc1c(Cl)c(C(F)(F)F)nn1CC(=O)O` [V-6, [4-Chloro-5-methyl-3-(trifluoromethyl)-1H-pyrazol-1-yl]acetic acid], under setting [4], the chromatographic logP worked out at 0.68. As to `CCOC(=O)c1csc(C2CCNCC2)n1` [VI-1, 4-[4-(Ethoxycarbonyl)-1,3-thiazol-2-yl]piperidinium chloride], the chromatographic logP under setting [3] was 0.42. In the case of `CCOC(=O)c1csc(C2CCCNC2)n1` (centres unmarked) [VI-2, 3-[4-(Ethoxycarbonyl)-1,3-thiazol-2-yl]piperidinium chloride], the chromatographic logP under setting [3] stood at 0.54. `O=C(Oc1cccc2ccccc12)c1csc(C2CCNCC2)n1` [X-2, 4-{4-[(1-Naphthyloxy)carbonyl]-1,3-thiazol-2-yl}piperidinium chloride]: the chromatographic logP under setting [3] was found to be 1.42. Still for that read-out and setting: under `CCOC(=O)Cn1nc(C(C)(C)C)cc1C(F)(F)F` [XVI-1, Ethyl [3-tert-butyl-5-(trifluoromethyl)-1H-pyrazol-1-yl]acetate] stands 3.89; under `CCOC(=O)Cn1nc(C(F)(F)F)cc1C(C)(C)C` [XVI-2, Ethyl [5-tert-butyl-3-(trifluoromethyl)-1H-pyrazol-1-yl]acetate], 3.48; under `CCOC(=O)Cn1nc(C(C)(C)C)cc1C(F)(F)C(F)(F)F` [XVI-3, Ethyl [3-tert-butyl-5-(pentafluoroethyl)-1H-pyrazol-1-yl]acetate], 4.45. For `CCOC(=O)Cn1nc(C(F)(F)C(F)(F)F)cc1C(C)(C)C` [XVI-4, Ethyl [5-tert-butyl-3-(pentafluoroethyl)-1H-pyrazol-1-yl]acetate], the chromatographic logP under setting [3] is 4.05.

For `CCOC(=O)Cn1nc(C(C)C)cc1C(F)(F)F` [XVI-5, Ethyl [3-isopropyl-5-(trifluoromethyl)-1H-pyrazol-1-yl]acetate], the chromatographic logP under setting [3] came out at 3.22. The same measure, in the same setting: under `CCOC(=O)Cn1nc(C(F)(F)F)c(Cl)c1C` [XVI-6, Ethyl [4-chloro-5-methyl-3-(trifluoromethyl)-1H-pyrazol-1-yl]acetate] stands 3.11; under `CC(C)(C)c1cc(C(F)(F)C(F)(F)F)[nH]n1` [XVIII-1, 3-tert-Butyl-5-(pentafluoroethyl)-1H-pyrazole], 3.23.
